Measured values reported in patent US10450326B2, “Thiazolopyrimidinone compounds and preparation methods and use thereof” (PEKING UNIVERSITY, priority 2015, dated 2019).

Biological target: T1, α7 nAChR (Homo sapiens, UniProt P36544)
T1 construct: expressed in transfected cells; host or cells: Xenopus oocytes (cRNA injection)
Experiment: α7 nAChR positive allosteric modulator activity assay, voltage clamp in Xenopus oocytes with 100 μM ACh
Assay type: cell-based
Details: for activity at 10 µM: at 10 μM compound, current induced by 100 μM ACh, Xenopus oocytes expressing α7 nAChR, read-out: Max Mod (%, at 10 μM); for EC50: potentiation of current induced by 100 μM ACh, Hill equation fit
Protocol: The experimental process was as follows:
(1) Xenopus oocytes were injected with cRNA encoding α7 nAChR in order to express α7 nAChR on the cell membrane successfully;
(2) 100 μM ACh alone was added, and the α7 nAChR characteristic current caused by it was recorded as a control;
(5) The oocytes were incubated for 1 min with 10 μM compound, then 10 µM compound and 100 μM ACh were added simultaneously and the current induced by ACh was recorded at this time;
(6) The differences between the two currents in terms of peak intensity and duration were compared, with the ratio of peak intensity of the two currents representing the adjustment effect (Enhance Rate), in order to determine whether the compound had PAM activity, if the activity was good, then the subsequent test was carried out;
(7) Concentration gradient was set and the effects of compounds at different concentrations on the α7 nAChR characteristic current induced by 100 μM ACh were evaluated. Several determinations were carried out at the same concentration, and the results were presented in the form of “mean±standard deviation”;
(8) The EC50 (median maximum effect concentration) values and Max mod (the current amplitude caused by the maximal degree of adjustable endogenous agonist acetylcholine) values of the compounds and other activity data were obtained by Hill equation Inormalized=Emax/(1+(EC50/C)nH).
The amplitude of the peak current is only normalized by the amplitude produced by 100 μM ACh and different concentrations of LD486. […] It can be seen from FIG. 3 that the Hill equation is used to fit the dose-response curve and calculate the kinetic parameters.

T1 sequence (P36544 23-502): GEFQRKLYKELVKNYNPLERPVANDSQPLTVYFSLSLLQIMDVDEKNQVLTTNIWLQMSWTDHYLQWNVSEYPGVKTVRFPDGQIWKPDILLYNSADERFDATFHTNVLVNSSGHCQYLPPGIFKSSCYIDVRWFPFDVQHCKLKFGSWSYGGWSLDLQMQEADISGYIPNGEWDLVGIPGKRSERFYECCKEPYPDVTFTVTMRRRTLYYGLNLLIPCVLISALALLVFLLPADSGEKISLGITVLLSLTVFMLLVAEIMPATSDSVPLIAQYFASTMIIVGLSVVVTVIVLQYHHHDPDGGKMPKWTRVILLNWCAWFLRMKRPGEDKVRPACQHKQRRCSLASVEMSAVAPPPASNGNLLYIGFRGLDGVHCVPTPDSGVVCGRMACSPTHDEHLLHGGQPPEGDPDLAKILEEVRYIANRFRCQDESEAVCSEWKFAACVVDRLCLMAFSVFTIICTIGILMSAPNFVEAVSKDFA

| Compound | activity at 10 µM [%] | EC50 [µM] |
| --- | --- | --- |
| Cc1ccc(Nc2nc3ncn(-c4c(C)cccc4Cl)c(=O)c3s2)cc1F [JWX-A0108, 6-(2-Chloro-6-methylphenyl)-2-((3-fluoro-4-methylphenyl)amino)thiazolo[4,5-d]pyrimidin-7(6H)-one] |  | 3.39 |
| Cc1cccc(Cl)c1-n1cnc2nc(NC(=O)c3ccccc3)sc2c1=O [JWX-A0121, N-(6-(2-Chloro-6-methylphenyl)-7-oxo-6,7-dihydrothiazolo[4,5-d]pyrimidin-2-yl)benzamide] | 200 | 10 |
| COc1ccc(C(=O)Nc2nc3ncn(-c4c(C)cccc4Cl)c(=O)c3s2)cc1 [JWX-A0312, N-(6-(2-Chloro-6-methylphenyl)-7-oxo-6,7-dihydrothiazolo[4,5-d]pyrimidin-2-yl)-4-methoxybenzamide] | 630 | 10 |
| Cc1cc(Nc2nc3ncn(-c4c(C)cccc4Cl)c(=O)c3s2)cc(C)c1C [JWX-A0322, 6-(2-Chloro-6-methylphenyl)-2-((3,4,5-trimethylphenyl)amino)thiazolo[4,5-d]pyrimidin-7(6H)-one] | 600 | 3.15 |
| Cc1ccc(Nc2nc3ncn(-c4ccccc4C)c(=O)c3s2)cc1 [JWX-A0414, 6-(o-Tolyl)-2-(p-tolylamino)thiazolo[4,5-d]pyrimidin-7(6H)-one] | 150 | 10 |
| Cc1cccc(Cl)c1-n1cnc2nc(NC(=O)c3ccc(F)cc3)sc2c1=O [JWX-A0617, N-(6-(2-Chloro-6-methylphenyl)-7-oxo-6,7-dihydrothiazolo[4,5-d]pyrimidin-2-yl)-4-fluorobenzamide] | 150 | 10 |
| Cc1nc(Nc2nc3ncn(-c4c(C)cccc4Cl)c(=O)c3s2)cc(N2CCN(CCO)CC2)n1 [JWX-A0728, 6-(2-Chloro-6-methylphenyl)-2-((6-(4-(2-hydroxyethyl)piperazin-1-yl)-2-methylpyrimidin-4-yl)amino)thiazolo[4,5-d]pyrimidin-7(6H)-one] | 110 |  |
| Cc1cccc(Cl)c1-n1cnc2nc(Nc3ccccc3)sc2c1=O [JWX-A0824, 6-(2-Chloro-6-methylphenyl)-2-(phenylamino)thiazolo[4,5-d]pyrimidin-7(6H)-one] | 300 | 10 |
| Cc1cccc(Cl)c1-n1cnc2nc(Nc3ccccn3)sc2c1=O [JWX-A0828, 6-(2-Chloro-6-methylphenyl)-2-(pyridin-2-ylamino)thiazolo[4,5-d]pyrimidin-7(6H)-one] | 110 |  |
| Cc1cccc(Cl)c1-n1cnc2nc(O)sc2c1=O [JWX-A0903, 6-(2-Chloro-6-methylphenyl)-2-hydroxythiazolo[4,5-d]pyrimidin-7(6H)-one] | 110 |  |
| Cc1nc(Nc2nc3ncn(-c4c(C)cccc4Cl)c(=O)c3s2)cc(N2CCN(C)CC2)n1 [JWX-A1022, 6-(2-Chloro-6-methylphenyl)-2-((2-methyl-6-(4-methylpiperazin-1-yl)pyrimidin-4-yl)amino)thiazolo[4,5-d]pyrimidin-7(6H)-one] | 110 |  |
| Cc1ccc(Nc2nc3ncn(-c4c(C)cccc4Cl)c(=O)c3s2)cc1 [JWX-A1029, 6-(2-Chloro-6-methylphenyl)-2-(p-tolylamino)thiazolo[4,5-d]pyrimidin-7(6H)-one] |  | 7.47 |
| COc1ccc(Nc2nc3ncn(-c4c(C)cccc4Cl)c(=O)c3s2)cc1 [JWX-A1030, 6-(2-Chloro-6-methylphenyl)-2-((4-methoxyphenyl)amino)thiazolo[4,5-d]pyrimidin-7(6H)-one] | 200 | 10 |
| Cc1cccc(Cl)c1-n1cnc2nc(Nc3ccc(Br)cc3)sc2c1=O [JWX-A1105, 6-(2-chloro-6-methylphenyl)-2-((4-Bromophenyl)amino)-thiazolo[4,5-d]pyrimidin-7(6H)-one] | 150 | 10 |
| COc1cccc(Nc2nc3ncn(-c4c(C)cccc4Cl)c(=O)c3s2)c1 [JWX-A1106, 6-(2-chloro-6-methylphenyl)-2-((3-methoxyphenyl)amino)thiazolo[4,5-d]pyrimidin-7(6H)-one] | 150 | 10 |
| Cc1cccc(Cl)c1-n1cnc2nc(N(C)c3ccccc3)sc2c1=O [JWX-A1114, 6-(2-Chloro-6-methylphenyl)-2-(methyl(phenyl)amino)thiazolo[4,5-d]pyrimidin-7(6H)-one] | 150 | 10 |
| Cc1cccc(Cl)c1-n1cnc2nc(Nc3cccc(Cl)c3)sc2c1=O [JWX-A1116, 6-(2-Chloro-6-methylphenyl)-2-((3-chlorophenyl)amino)thiazolo[4,5-d]pyrimidin-7(6H)-one] | 300 | 10 |
| Cc1cccc(Cl)c1-n1cnc2nc(Nc3ccc(F)cc3)sc2c1=O [JWX-A1119, 6-(2-Chloro-6-methylphenyl)-2-((4-fluorophenyl)amino)thiazolo[4,5-d]pyrimidin-7(6H)-one] | 250 | 10 |
| Cc1cccc(Nc2nc3ncn(-c4c(C)cccc4Cl)c(=O)c3s2)c1 [JWX-A1211, 6-(2-Chloro-6-methylphenyl)-2-(m-tolylamino)thiazolo[4,5-d]pyrimidin-7(6H)-one] |  | 8.39 |
| Cc1cccc(Cl)c1-n1cnc2nc(SCc3ccccc3)sc2c1=O [JWX-A1223, 6-(2-chloro-6-methylphenyl)-2-(Benzylthio)thiazolo[4,5-d]pyrimidin-7(6H)-one] |  | 1.26 |
| Cc1cccc(Cl)c1-n1cnc2nc(NCc3ccccc3)sc2c1=O [JWX-A1228, 6-(2-chloro-6-methylphenyl)-2-(Benzylamino)thiazolo[4,5-d]pyrimidin-7(6H)-one] | 110 |  |

More lines, now with the values ahead:

| activity at 10 µM [%] | EC50 [µM] | Compound |
| --- | --- | --- |
| 110 |  | Cc1nc(Cl)cc(Nc2nc3nnn(-c4c(C)cccc4Cl)c(=O)c3s2)n1 [JWX-A3N, 6-((6-Chloro-2-methylpyrimidin-4-yl)amino)-3-(2-chloro-6-methylphenyl)thiazolo[4,5-d][1,2,3]triazin-4(3H)-one] |
| 450 | 10 | Cc1ccc(C(=O)Nc2nc3ncn(-c4c(C)cccc4Cl)c(=O)c3s2)cc1 [JWX-A0310, N-(6-(2-Chloro-6-methylphenyl)-7-oxo-6,7-dihydrothiazolo[4,5-d]pyrimidin-2-yl)-4-methylbenzamide] |
| 650 | 6.99 | Cc1ccc(Nc2nc3ncn(-c4c(C)cccc4Cl)c(=O)c3s2)cc1C [JWX-A0315, 6-(2-Chloro-6-methylphenyl)-2-((3,4-dimethylphenyl)amino)thiazolo[4,5-d]pyrimidin-7(6H)-one] |
| 680 | 10 | Cc1ccc(Nc2nc3ncn(-c4ccccc4Cl)c(=O)c3s2)cc1 [JWX-A0415, 6-(2-Chlorophenyl)-2-(p-tolylamino) thiazolo[4,5-d]pyrimidin-7(6H)-one] |
| 300 | 10 | Cc1ccccc1Nc1nc2ncn(-c3c(C)cccc3Cl)c(=O)c2s1 [JWX-A0602, 6-(2-Chloro-6-methylphenyl)-2-(o-tolylamino)thiazolo[4,5-d]pyrimidin-7(6H)-one] |
| 200 | 10 | Cc1cccc(Cl)c1-n1cnc2nc(Nc3ccccc3F)sc2c1=O [JWX-A0611, 6-(2-Chloro-6-methylphenyl)-2-((2-fluorophenyl)amino)thiazolo[4,5-d]pyrimidin-7(6H)-one] |
| 200 | 10 | Cc1cccc(Cl)c1-n1cnc2nc(Nc3cc(Cl)ncn3)sc2c1=O [JWX-A0912, 6-(2-Chloro-6-methylphenyl)-2-((6-chloropyrimidin-4-yl)amino)thiazolo[4,5-d]pyrimidin-7(6H)-one] |
| 110 |  | Cc1cccc(Cl)c1-n1cnc2nc(Nc3ccc(Cl)nn3)sc2c1=O [JWX-A0918, 6-(2-Chloro-6-methylphenyl)-2-((6-chloropyridazin-3-yl)amino)thiazolo[4,5-d]pyrimidin-7(6H)-one] |
| 200 | 10 | Cc1cccc(Cl)c1-n1cnc2nc(Nc3ccc(Cl)cc3)sc2c1=O [JWX-A1104, 6-(2-Chloro-6-methylphenyl)-2-((4-chlorophenyl)amino)thiazolo[4,5-d]pyrimidin-7(6H)-one] |
| 200 | 10 | Cc1cccc(Cl)c1-n1cnc2nc(Nc3cccc(Br)c3)sc2c1=O [JWX-A1113, 6-(2-chloro-6-methylphenyl)-2-((3-Bromophenyl)amino)-thiazolo[4,5-d]pyrimidin-7(6H)-one] |
| 450 | 7.65 | Cc1cccc(Cl)c1-n1cnc2nc(Nc3cccc(F)c3)sc2c1=O [JWX-A1214, 6-(2-Chloro-6-methylphenyl)-2-((3-fluorophenyl)amino)thiazolo[4,5-d]pyrimidin-7(6H)-one] |
| 110 |  | CCCNc1nc2ncn(-c3c(C)cccc3Cl)c(=O)c2s1 [JWX-A1229, 6-(2-Chloro-6-methylphenyl)-2-(n-propylamino)thiazolo[4,5-d]pyrimidin-7(6H)-one] |
| 500 | 10 | Cc1cccc(Cl)c1-n1cnc2nc(Nc3ccc(F)c(Cl)c3)sc2c1=O [JWX-A-C0104, 6-(2-chloro-6-methylphenyl)-2-((3-chloro-4-fluorophenyl)amino)thiazolo[4,5-d]pyrimidin-7(6H)-one] |
